{"source": "paper PMC7943581", "about": "“Tumor-penetrating therapy for β5 integrin-rich pancreas cancer” (Nature Communications, 2021)", "key": {"[1]": {"test_system": "mPCFAA0779 CAFs and LM-PmC cells", "experiment": "Peptide entry in 2D co-cultures (confocal microscopy)", "type": "cell-based, mouse", "settings": "2D co-culture, 20 μM peptide, 4 h, 37 °C", "experimental": "A mixture of tumor cells and CAFs at a 2:1 ratio was grown on collagen I-coated coverslips (BD Biosciences) overnight or until they became confluent. The cells were incubated with 20 μM of FAM-labeled peptides for 4 h at 37 °C. The cells were briefly rinsed with warm PBS, fixed in warm 4% paraformaldehyde, and stained with DAPI (1:1000). The cells were visualized with a Fluoview 500 confocal microscope (Olympus America, Center Valley, PA)."}, "KPC mouse tumors": {"test_system": "KPC mouse tumors", "experiment": "Modified Miles assay, Evans Blue with iRGD co-injection", "type": "in vivo", "settings": "IV 100 μl 1% Evans blue then 100 μg iRGD or PBS, 40 min, OD 600 nm, Fig S14", "experimental": "The experiments were performed as described earlier[20],[38]. In brief, for Miles assays, anesthetized mice were warmed to 37 °C for 10 min, followed by an IV bolus of 100 μl of 1% Evans blue dye and then 100 μg of iRGD. After 40 min, the mice under deep anesthesia were perfused through the heart with PBS containing 1% BSA and the organs were harvested for dye extraction using […]. OD 600 nm of the supernatant was measured. For dextran delivery, mice were intravenously injected with 0.3 mg of iRGD followed by 0.3 mg of 10 kDa Alexa 647-conjugated fixable dextran (Invitrogen). After 1 h of circulation, mice were perfused with PBS containing 1% BSA and the organs were harvested and processed for immunofluorescence."}, "[2]": {"test_system": "αvβ5 integrin expression in PC3 cells", "experiment": "Cell surface αvβ5 integrin expression in PC3 cells with TGF-β or LY2157299", "type": "cell-based, human", "settings": "for avb5 MFI: Fig 4E", "experimental": "(§1) Spheroids were generated by incubating 5 × 10^4 cells per well in 24-well low binding plates for 3 days. For co-culture studies, spheroids prepared with a mixture of 5 × 10^4 CAFs and 10^4 tumor cells per well were used. In some cases, spheroids were maintained in CM for 2 days in the presence or absence of 10 μM dimethyl sulfoxide (DMSO) or a specific TGF-β inhibitor LY2157299 (PeproTech, Princeton, NJ). The CM was prepared from the supernatant of 3-day-old cultures of CAFs or tumor cells, which was centrifuged at 2000×g for 40 min to remove cellular debris. Some spheroids were incubated in the presence of 30 ng/ml human TGF-β (eBioscience, San Diego, CA) for 48 h.\n(§2) Cells were trypsinized into a single cell suspension before staining. The primary antibodies were mouse anti-human αvβ3 (1 μg/sample) (Clone LM609 Cat no. MAB1976, EMD Millipore, Billerica, MA), mouse anti-human αvβ5 (1 μg) (Clone P1F6, Cat no. MAB1961 EMD Millipore), rat anti-mouse αv (1 μg) (Clone RMV7, Cat no. 50-104-13, eBioscience), rabbit anti-human NRP-1 b1b2[20] (1 μg), and Alexa 647 or BV421-conjugated mouse anti-human/mouse αvβ5 (1:50) (clone ALULA Cat no. 565836 or 743669, BD Biosciences, San Jose, CA). The primary antibodies were detected with corresponding secondary antibodies conjugated with Alexa 488, 594, or 647 (1:250) (Invitrogen). The cells were analyzed with an LSR Fortessa System (BD Biosciences), and the data were analyzed with a FlowJo software. Cells were gated on single cells and then on live cells by excluding DAPI or PI positive cells. In tumor cell/CAF co-culture experiments, mCherry high cells were gated in order to define the mCherry-labeled CAFs. For iRGD-AgNP uptake quantification, specific uptake was defined by gating cells positive for either Alexa 647 or 488, which were attached to the AgNPs.\n(§3) Spheroids were dissociated into a single cell suspension as described in the previous section. The cells were subjected to flow cytometry to analyze the protein expression of αvβ3 and αvβ5 integrins and NRP-1. The flow cytometry was performed as described in a previous section. Some cells were also subjected to qPCR to analyze mRNA expression of αv (ITGav) and ITGb5 integrin subunits, TGF-β, and ZEB1. Total RNA was extracted using Trizol Reagent (Invitrogen), and cDNA was generated using a SuperScript III First-strand Synthesis System (Invitrogen). qPCR was performed using SYBR green in an ABI 7900 HT (Applied Biosystems, Foster City, CA). The results were normalized against β-actin and cyclophilin A. The list of primers can be found in Supplementary Table 1."}, "[3]": {"test_system": "NRP-1 expression in PC3 cells", "experiment": "Cell surface NRP-1 expression in PC3 cells with TGF-β or LY2157299", "type": "cell-based, human", "settings": "Fig 4F", "experimental": "as §1, §2, §3"}, "PDAC in KPC mice": {"test_system": "PDAC in KPC mice", "experiment": "Long-term treatment of KPC mice, gemcitabine with or without iRGD", "type": "in vivo, mouse", "experimental": "One hundred micrograms of FAM-labeled peptide dissolved in 100 μl of PBS was intravenously injected into tumor mice, and allowed to circulate for 15, 30, or 60 min. The mice were perfused through the heart under deep anesthesia using PBS containing 1% BSA, and tissues were harvested, fixed with 4% PFA overnight, washed three times with PBS, and then transferred to 30% sucrose prior to embedding in optimal cutting temperature compound (OCT). In some cases, the FAM signal was enhanced with an anti-fluorescein antibody (1:200) (Cat no. A-889, Invitrogen) followed by a secondary anti-rabbit Alexa 488 antibody (1:200) (Invitrogen). Other antibodies used for immunofluorescence were anti-FAP (1:100) (Cat. no. ABT-11, Millipore Sigma, Temecula, CA), Cy3-anti-αSMA (1:100) (Clone 1A4, Cat. no. C6198, Millipore Sigma), anti-ER-TR7 (1:100) (Cat. no. SC-73355, Santa Cruz Biotechnology, Dallas, TX), rabbit anti-mouse β5 integrin (1:200) (Cat. no. 15459, GeneTex, Irvine, CA), rabbit monoclonal anti-Ki67 (1:200) (Clone SP6, Cat. no. ab16667, Abcam), mouse monoclonal anti-αSMA (0.034 μg/ml) (Clone 1A4, Cat. no. ab7817, Abcam), and rat anti-mouse CD31(1:100) (Clone MEC 13.3, Cat. no. 550274, BD Biosciences) antibodies. The sections were also stained with 4′,6-diamidino-2-phenylindole (DAPI) (1:1000) (Invitrogen). The stained tissue sections were examined with a Zeiss confocal microscope (Zeiss, Dublin, CA). To quantify FAM-iRGD homing (green) and its colocalization with CAFs (red), confocal micrographs were converted to RGB color mode and analyzed with an ImageJ software for the intensity and areas positive for one or both colors. Six to eight random fields per tumor were chosen and repeated in three tumor mice for each time point. For intraductal spreading of FAM-iRGD, cancerous ducts with or without FAM-iRGD signal were manually counted per field of view in confocal micrographs. Six random fields were chosen for each of the three tumors at both time points.\nImmunohistochemistry was performed as described previously. Briefly, paraffin-embedded sections were cleared, rehydrated, and subjected to steam heat-mediated antigen retrieval using low or high pH buffer (eBioscience). Endogenous peroxidase activity was blocked with BloxALL (Vector, Burlingame, CA). Blocking was performed with 10% donkey or goat serum plus 5% BSA. The sections were treated with a rabbit anti-αvβ5 polyclonal antibody (1:200) (Cat. no. bs-1356R, BIOSS, Woburn, MA) or a rabbit polyclonal anti-cleaved caspase 3 antibody (1:250) (Cat. no. 9579S, Cell Signaling) at 4 °C overnight and incubated with ImmPRESS (IHC-P, rabbit, MP-7401) secondary antibody reagent (Vector, Burlingame, CA). The sections were counter stained with hematoxylin and eosin (H&E) and viewed with a Nikon Eclipse E-600 bright field microscope.\nKPC mice with PDAC of ~4–5 mm confirmed by palpation and ultrasound imaging were randomized into respective treatment cohorts: iRGD alone (100 μg/IV injection, n = 10); gemcitabine (TSZ Chem, Waltham, MA) (100 mg/kg/IP injection, n = 18); iRGD + gemcitabine (n = 16). The treatment was given every 4 days until the mice met the criteria for sacrifice defined by the IACUC. Survival curves were drawn and analyzed using GraphPad (Prism8) software. In another study, the KPC mice were randomized into gemcitabine (100 mg/kg/IP injection) + nab-paclitaxel composed of mouse albumin (30 mg/kg/IP injection) or iRGD (100 μg/IV injection) + gemcitabine + nab-paclitaxel. […]"}}, "data": [{"compound": "FAM-CRGDC", "values": [{"measurement": "entry of FAM-labeled peptide into cells", "setting": "[1]", "value": "to a much lesser extent than FAM-iRGD"}]}, {"compound": "CRGEKGPDC [FAM-iRGE, variant peptide (…) with the RGD motif changed to RGE, FAM-labeled]", "values": [{"measurement": "entry of FAM-labeled peptide into cells", "setting": "[1]", "value": "minimal affinity to the cells"}]}, {"compound": "Cc1cc(-c2ccc(/N=N/c3ccc4c(S(=O)(=O)O)cc(S(=O)(=O)O)c(N)c4c3O)c(C)c2)ccc1/N=N/c1ccc2c(S(=O)(=O)O)cc(S(=O)(=O)O)c(N)c2c1O", "note": "[PBS + EB, Evans Blue]", "values": [{"measurement": "Evans Blue in KPC mouse tumors normalized against wet tissue weight", "setting": "KPC mouse tumors; Exp 1", "value": 0.004, "unit": "µg/mL/mg"}, {"measurement": "Evans Blue in KPC mouse tumors normalized against wet tissue weight", "setting": "KPC mouse tumors; Exp 2", "value": 0.07, "unit": "µg/mL/mg"}, {"measurement": "Evans Blue in KPC mouse tumors normalized against wet tissue weight", "setting": "KPC mouse tumors; Exp 3", "value": -0.074, "unit": "µg/mL/mg"}]}, {"compound": "TGF-β", "values": [{"measurement": "avb5 MFI", "setting": "[2]; PC3, NM+TGFb+DMSO, Exp1", "value": 7502}, {"measurement": "avb5 MFI", "setting": "[2]; PC3, NM+TGFb+DMSO, Exp2", "value": 9515}, {"measurement": "avb5 MFI", "setting": "[2]; PC3, NM+TGFb+DMSO, Exp3", "value": 6238}, {"measurement": "avb5 MFI", "setting": "[2]; PC3, NM+TGFb+DMSO, Exp4", "value": 5783}, {"measurement": "effect of exogenous TGF-β on αvβ5 expression", "setting": "[2]; cultured PC3 cells, 30 ng/ml, 48 h", "value": "reproduced the CAF CM-induced increase in αvβ5 expression"}, {"measurement": "NRP1 MFI", "setting": "[3]; PC3, NM+TGFb+DMSO, Exp1", "value": 12904}, {"measurement": "NRP1 MFI", "setting": "[3]; PC3, NM+TGFb+DMSO, Exp2", "value": 3924}, {"measurement": "NRP1 MFI", "setting": "[3]; PC3, NM+TGFb+DMSO, Exp3", "value": 4995}]}, {"compound": "Cc1cccc(-c2nn3c(c2-c2ccnc4ccc(C(N)=O)cc24)CCC3)n1", "note": "[LY2157299]", "values": [{"measurement": "effect on CAF CM-induced αvβ5 expression in PC3 cells", "setting": "[2]; 10 μM, 2 days in CM", "value": "completely blocked"}, {"measurement": "avb5 MFI", "setting": "[2]; PC3, CAFCM+LY, Exp1", "value": 4907}, {"measurement": "avb5 MFI", "setting": "[2]; PC3, CAFCM+LY, Exp2", "value": 3245}, {"measurement": "avb5 MFI", "setting": "[2]; PC3, CAFCM+LY, Exp3", "value": 2633}, {"measurement": "avb5 MFI", "setting": "[2]; PC3, CAFCM+LY, Exp4", "value": 2959}, {"measurement": "avb5 MFI", "setting": "[2]; PC3, NM+TGFb+LY, Exp1", "value": 4584}, {"measurement": "avb5 MFI", "setting": "[2]; PC3, NM+TGFb+LY, Exp2", "value": 3278}, {"measurement": "avb5 MFI", "setting": "[2]; PC3, NM+TGFb+LY, Exp3", "value": 2186}, {"measurement": "avb5 MFI", "setting": "[2]; PC3, NM+TGFb+LY, Exp4", "value": 2450}, {"measurement": "NRP1 MFI", "setting": "[3]; PC3, CAFCM+LY, Exp1", "value": 4550}, {"measurement": "NRP1 MFI", "setting": "[3]; PC3, CAFCM+LY, Exp2", "value": 2287}, {"measurement": "NRP1 MFI", "setting": "[3]; PC3, CAFCM+LY, Exp3", "value": 2840}, {"measurement": "NRP1 MFI", "setting": "[3]; PC3, NM+TGFb+LY, Exp1", "value": 11021}, {"measurement": "NRP1 MFI", "setting": "[3]; PC3, NM+TGFb+LY, Exp2", "value": 3760}, {"measurement": "NRP1 MFI", "setting": "[3]; PC3, NM+TGFb+LY, Exp3", "value": 6318}]}, {"compound": "Nc1ccn([C@@H]2O[C@H](CO)[C@@H](O)C2(F)F)c(=O)n1", "note": "[Gem, gemcitabine]", "values": [{"measurement": "liver metastases (median)", "setting": "PDAC in KPC mice; KPC mice, necropsy of random samples, not significant", "value": 26}, {"measurement": "lung metastases (median)", "setting": "PDAC in KPC mice; KPC mice, necropsy of random samples, p = 0.03", "value": 9}, {"measurement": "survival at 180 days", "setting": "PDAC in KPC mice; KPC mice, treatment every 4 days", "value": 0, "unit": "%"}, {"measurement": "median survival", "setting": "PDAC in KPC mice; KPC mice, treatment every 4 days, n = 16 combination, n = 18 gemcitabine", "value": 71, "unit": "days"}]}, {"compound": "CRGDK/RGPD/EC [iRGD, iRGD tumor-penetrating peptide (CRGDK/RGPD/EC)]", "values": [{"measurement": "therapeutic benefit vs historical survival of untreated KPC mice", "setting": "PDAC in KPC mice; iRGD alone 100 μg IV every 4 days, n = 10, Fig S15", "value": "did not provide any therapeutic benefit"}]}]}
